From patent US5753623A, “Method of treatment for depression” (Connetics Corporation, priority 1995, dated 1998)

Experiments:
patients = assay: Relaxin treatment regimen with gradually decreased dosage (Example 5); type: in vivo, human; details: about 6 μg/kg, then dosage gradually decreased to minimum dose or zero
Procedure: Relaxin is administered in patient-dependent doses (about 6 μg/kg) sufficient to maintain serum concentrations of at least about 1.0 ng/ml (approximating relaxin concentration during pregnancy).

[1] = Serum relaxin concentrations after single subcutaneous administration to a scleroderma patient; type: in vivo, human; details: 10 μg/kg single subcutaneous injection
Procedure: FIG. 1 is a graph showing serum relaxin concentration (ng/ml) as measured against time after administration of a single subcutaneous dose of 10 μg/kg to a scleroderma patient.
Relaxin (10 μg/kg) was administered as a single subcutaneous injection to a scleroderma patient. Blood samples were obtained at timed intervals and measured for serum relaxin concentration (ng/ml). Peak serum concentration was attained at about 2 hours post dosing.

scleroderma patients = assay: Monitoring of overall wellbeing in Phase I clinical trials in scleroderma patients; type: in vivo, human
Description: Recombinant human relaxin (H2) in currently in Phase I human clinical trials in scleroderma patients. Scleroderma is a disease involving an imbalance in tissue reformation giving rise to the overproduction of collagen, and ultimately resulting in swelling and hardening of the skin (and affected organs).
Relaxin is currently the subject of Phase I clinical trials involving scleroderma patients. Scleroderma is a disease involving an imbalance in tissue reformation giving rise to the overproduction of collagen, and ultimately resulting in swelling and hardening of the skin (and affected organs). Part of the clinical testing of relaxin in scleroderma patients included the monitoring of overall wellbeing.

[2] = system: patient with severe systemic scleroderma; assay: Human antidepressant activity, missed doses and readministration (Example 4); type: in vivo
Procedure: A patient diagnosed as having severe systemic scleroderma with systemic sclerosis, was undergoing compassionate use therapy with relaxin. They were being treated with 1.5 mg per day of recombinant human relaxin (H2) in a buffered citrate solution adjusted to pH 5.0, divided into six equal doses by subcutaneous injection to achieve a circulating concentration of about 1.0 ng/ml.

Male Lewis mice = assay: Mouse forced swimming wheel model; type: in vivo; details: 50 μg/kg/day subcutaneous, two hours before the test, versus placebo control
Procedure: This is a modification of the forced swimming wheel test described by Kasahara, et al., Life Sci., 52(22):1741-1749 (1993).
Male Lewis mice are divided into control and treatment groups. Two hours before the test, the control and treatment groups, respectively, receive subcutaneous injections of placebo or 50 μg/kg/day of recombinant human relaxin (H2) formulated as described in allowed U.S. Ser. No. 08/050,745. The mice are individually placed in the swimming wheel and the number of turns of the wheel is recorded for each. Antidepressant activity is indicated by an increased number of turns in the treatment group.

[3] = Serum concentrations of relaxin in the ongoing clinical trials; type: in vivo, human
Procedure: While human dosage levels for treating depression have yet to be optimized for relaxin, generally, a daily dose is from about […] of body weight per day, preferably about […] μg/kg, and most preferably about 12.0 to 100.0 μg/kg. Generally it is sought to obtain a serum concentration of relaxin approximating or greater than normal circulating levels in pregnancy, i.e., 1.0 ng/ml, such as 0.5 to 50 ng/ml, preferably 1.0 to 20 ng/ml. […] Thus, for administration to a 70 kg person, the dosage range would be about 7.0 μg to 3.5 mg per day, preferably about […] to 2.1 mg per day, and most preferably about […] per day. The amount of relaxin administered will, of course, be dependent on the subject and the severity of the affliction, the manner and schedule of administration and the judgment of the prescribing physician. One treatment regimen can employ a higher initial dosage level (e.g., 100 to 200 μg/kg/day) followed by decreasing dosages to achieve steady relaxin serum concentration of about 1.0 ng/ml. Another treatment regimen, particularly for postpartum depression, entails administration of an amount of relaxin sufficient to attain normal pregnancy levels of relaxin (about 1.0 ng/ml) followed by gradual decreasing dosages until relaxin serum levels are no longer detectable (e.g., less than about 20 pg/ml), optionally discontinuing treatment upon reaching that dosage level.

[4] = system: patient with severe systemic scleroderma; assay: Human antidepressant activity, dose ranging phase (Example 3); type: in vivo; details: 0.5 mg bolus subcutaneous
Procedure: A patient diagnosed as having severe systemic scleroderma with systemic sclerosis, was undergoing compassionate use therapy with relaxin. In a dose ranging phase of the therapy, recombinant human relaxin (H2) in a buffered citrate solution adjusted to Ph 5.0 was administered as a bolus subcutaneous injection of 0.5 mg.

[5] = system: female subjects after childbirth; assay: Clinical trial for treatment of postpartum depression (Example 6); type: in vivo, human; details: osmotic pump 50 μg/kg/day subcutaneous from three days after childbirth, three months, versus placebo
Procedure: One hundred pregnant female subjects are monitored for relaxin serum concentration during the course of their pregnancy. The subjects are randomized and divided into treatment and control groups. Three days after childbirth, in the treatment group, relaxin is administered by subcutaneous placement of a relaxin-containing osmotic pump delivering 50 μg/kg/day of recombinant human relaxin (H2); in the control group, placebo is administered by subcutaneous placement of a placebo-containing osmotic pump. The subjects are required to maintain a diary documenting their mood (e.g., joy/euphoria/depression/anxiety) over a period of three months following placement of the drug/placebo. The same is documented, along with relaxin serum concentration, by weekly visits to the treating physician.

In the case of relaxin, the “depression associated with withdrawal” value (patients) is reported as “do not experience depression associated with precipitous withdrawal”, the “time to peak serum concentration” value [1] is reported as “about 2 hours” and the “effect of discontinuation of therapy on mood” value (scleroderma patients; discontinuation of therapy) is reported as “malaise described as best comparable to postpartum depression”. The reversibility of malaise (scleroderma patients; resumption of treatment) was “reversible upon resumption of treatment”, the mood during treatment (scleroderma patients; treatment of scleroderma with relaxin) was “mood elevations corresponded to peak dosing periods” and the “mood after several missed doses” value ([2]; 1.5 mg per day in six subcutaneous doses, doses inadvertently missed) was “feelings similar to those they had previously experienced in the postpartum period”. For the same substance, the “clearing of the "blues" after readministration” value ([2]; 1.5 mg per day in six subcutaneous doses, readministration after missed doses) was “cleared within hours of readministration”, the “episodes of depression during uninterrupted treatment” value ([2]; following year, patient not withdrawn from treatment) was “no similar episodes of depression were experienced” and the “number of turns of the swimming wheel” value (Male Lewis mice) was “increased number of turns as compared to the control group”. The serum concentration ([3]; dosage of about 6.0 μg/kg, printed spread ±0.3) was “about 1.8 ng/ml”, the serum concentration ([3]; dosage of about 12.0 μg/kg, printed spread ±0.6) was about 3.6 ng/mL and the serum concentration ([3]; dosage of about 50 μg/kg, printed spread ±1.6) was about 11.8 ng/mL. For the same substance, the patient-reported mood symptoms ([4]; about seven hours post dosing) was “significant anxiety/depression-like symptoms”, the relaxin serum concentration ([4]; about seven hours post dosing, approximated) was “below 1 ng/ml” and the patient-reported wellbeing ([4]; about two hours post dosing (approximating peak serum concentration)) was “significant improvement in wellbeing”. The “signs of postpartum depression” value [5] was “fewer signs of postpartum depression than the subjects in the control group”.
